Several values for one entry are separate records, joined by “and”; a condition that tells them apart may be missing. Equal values may be shown once.
What was measured:
22RV1 (PSMA+) [1] = test: Drug efficacy validation by in vivo live imaging, three dose groups; design: species or system mice; details: for targeting properties: 22RV1 tumor mice, in vivo live imaging; for enrichment in the prostate cancer tumor site: high, medium and low doses (25, 50, 100 nmol/mouse), scans 1-48 h
Source text: (§1) “V” denotes the volume-to-mass ratio. […] Mice refer to BALB/c nude mice, 6-8 weeks old, weighing 18-20 g; rats refer to SD rats: 8 weeks old, approximately 250 g.
2. Drug Efficacy Validation Experiment Using In Vivo Live Imaging
Prostate-specific membrane antigen (PSMA) is overexpressed on prostate cancer cells. The test compound is a PSMA-targeting molecule conjugated with a near-infrared region I dye. The test compound can bind to PSMA and “illuminate” cancer cells upon excitation by a near-infrared light source. In this experiment, the in vivo tissue distribution of the test compound in mice is detected using in vivo live imaging.
DGPR1008, 22RV1 (PSMA+), PC3 (PSMA−), 1640 culture medium, FBS, double antibodies, trypsin, Matrigel (BD), vernier caliper, centrifuge, IVIS live imager.
Matrigel was thawed on ice in advance, and the culture medium was pre-cooled on ice. After centrifugation, the cells were resuspended in the pre-cooled culture medium, followed by the addition of HC Matrigel gel in a volume equal to the culture medium. The centrifuge tube containing the cells was placed on ice and transferred to the animal facility. The cells were thoroughly dispersed before inoculation. The right dorsal shoulder area of the mice was disinfected with an alcohol cotton ball, and a single intravenous administration was performed with an inoculation volume of 200 μL per mouse. All operations were performed on ice. When the tumor volume reached 300-400 mm^3, the mice were grouped for administration. Nine mice with well-grown and regularly shaped tumors were selected into the group. The nine mice were randomly divided into three groups: G1 (25 nmol/mouse), G2 (50 nmol/mouse), and G3 (100 nmol/mouse), with three mice in each group. The scanning time: 1, 2, 4, 8, 24, and 48 h.

PSMA receptor = target: T1, PSMA receptor (Homo sapiens, UniProt Q04609); test: Receptor binding detected by flow cytometry in vitro (competitive binding with DUPA-FITC); details: 22RV1 (PSMA+) cells, competition with 100 nmol/L DUPA-FITC
T1 construct: endogenous in cells; host or cells: 22RV1 (PSMA+); PC3 (PSMA−) as negative control
Source text: 1. Receptor Binding was Detected by Flow Cytometry In Vitro:
Prostate-specific membrane antigen (PSMA) is overexpressed on prostate cancer cells. Both DUPA-FITC and DGPR1008 are capable of targeting the PSMA receptor in prostate cancer cells, with the difference being that DUPA-FITC is connected to a visible light dye (Ex=495 nm, Em=520 nm), whereas DGPR1008 is connected to a near-infrared dye (Ex=776 nm, Em=793 nm). Since the majority types of lasers equipped in flow cytometers operate within the visible light spectrum, the binding affinity of DGPR1008 to the receptor can not be directly measured. Therefore, the competitive binding of DGPR1008 with DUPA-FITC to PSMA is employed to indirectly assess the binding affinity of the test compound to the receptor.
DGPR1008, DUPA-FITC, 22RV1 (PSMA+), PC3 (PSMA−), 1640 culture medium, FBS, double antibiotics, trypsin, centrifuge, 4° C. constant temperature incubator, flow cytometer.
Drug preparation: 100 nmol/L DUPA-FITC was prepared using culture medium. The test compound was diluted to nine concentrations (0.00098 μM, 0.002 μM, 0.008 μM, 0.01 μM, 0.03 μM, 0.05 μM, 0.09 μM, 0.1 μM, and 0.125 μM) using culture medium containing 100 nmol/L DUPA-FITC, with three replicate wells for each concentration.
Cell culture: The cells were seeded in T75 culture flasks. After 48 h, cells in the logarithmic growth phase were taken, digested with trypsin for 1-2 min, and the digestion was then terminated by adding fresh culture medium. After cell counting, the cells were transferred into a 96-well plate (1×10^5 cells/well), totaling 27 wells. The culture medium was discarded by centrifugation (800 rpm, 5 min), and the cells were washed twice with PBS and then centrifuged to collect the cell pellet. The prepared culture media with 9 concentrations were added to the cell-containing wells, with three replicates for each concentration. The cells were incubated at 4° C. in the dark for 30 min, and then the culture medium in the wells was discarded. Cells were washed by adding 300 μL of fresh culture medium (twice) and saline (once) to each well, followed by resuspension in 300 μL of saline for flow cytometry detection.

[2] = Pharmacokinetic parameters in rat plasma; type: in vivo; details: for clearance in rats in vivo, in words: compared with OTL78
[3] = Acute toxicity experiment on rats; details: three dose groups of high, medium and low doses
22RV1 (PSMA+) [4] = test: 2-hour ex vivo tissue distribution: fluorescence of tumor and in situ normal prostate; design: species or system mice; details: for discrimination capability (tumor vs normal prostate) compared with OTL78: relative to OTL78; for Prostate fluorescence / Tumor fluorescence / T/P Ratio: 2 h ex vivo, 10 nmol/mouse; for T/P Ratio: tumor to in situ normal prostate
Source text: (§2) The Prostate-specific membrane antigen (PSMA) is overexpressed on prostate cancer cells. The test compound is a PSMA-targeting molecule conjugated with a near-infrared region I dye. The test compound can bind to PSMA and “illuminate” cancer cells upon excitation by a near-infrared light source. In this experiment, the in vivo and ex vivo tissue distribution of the test compound in mice is detected using in vivo live imaging.
(§3) Matrigel was thawed on ice in advance, and the culture medium was pre-cooled on ice. After centrifugation, the cells were resuspended in the pre-cooled culture medium, followed by the addition of HC Matrigel gel in a volume equal to the culture medium. The centrifuge tube containing the cells was placed on ice and transferred to the animal facility. The cells were thoroughly dispersed before inoculation. The back of the neck was disinfected with an alcohol cotton ball, and a single intravenous administration was performed with an inoculation volume of 200 μL per mouse. All operations were performed on ice. When the tumor volume reached 300-400 mm^3, the mice were grouped for administration. Six mice with well-grown and regularly shaped tumors were selected into the group. The six mice were randomly divided into two groups: G1 (OTL78 10 nmol/mouse) and G2 (DGPR1008 10 nmol/mouse) with three mice in each group. The scanning time: 1, 2, 4, 8, 24, and 72 h.
(2) Results of 2-Hour Ex Vivo Tissue Distribution: Fluorescence Ratio of Tumor to In Situ Normal Prostate: […]

22RV1 (PSMA+) [5] = test: In vivo live imaging comparison with the existing product OTL78; design: species or system mice; details: for TBR (tumor-to-background ratio), in words: from about 2 h to 72 h; for fluorescence value at the tumor site compared with OTL78: mice, each time point; for TBR compared with OTL78: relative to OTL78; for TBR (mean) / fluorescence value at the tumor site: 10 nmol/mouse; for TBR (mean): 200 μL/mouse
Source text: as §1
3. Comparison with the Existing Product OTL78
as §2
DGPR1008, 22RV1 (PSMA+), BALB/c nude mouse, 1640 culture medium, FBS, double antibodies, trypsin, Matrigel (BD), vernier caliper, centrifuge, IVIS live imager.
as §3
(1) Results and Data of In Vivo Live Imaging of Drug Efficacy (Mice were Used as Experimental Subjects in this Part)

T1 sequence (Q04609 whole entry): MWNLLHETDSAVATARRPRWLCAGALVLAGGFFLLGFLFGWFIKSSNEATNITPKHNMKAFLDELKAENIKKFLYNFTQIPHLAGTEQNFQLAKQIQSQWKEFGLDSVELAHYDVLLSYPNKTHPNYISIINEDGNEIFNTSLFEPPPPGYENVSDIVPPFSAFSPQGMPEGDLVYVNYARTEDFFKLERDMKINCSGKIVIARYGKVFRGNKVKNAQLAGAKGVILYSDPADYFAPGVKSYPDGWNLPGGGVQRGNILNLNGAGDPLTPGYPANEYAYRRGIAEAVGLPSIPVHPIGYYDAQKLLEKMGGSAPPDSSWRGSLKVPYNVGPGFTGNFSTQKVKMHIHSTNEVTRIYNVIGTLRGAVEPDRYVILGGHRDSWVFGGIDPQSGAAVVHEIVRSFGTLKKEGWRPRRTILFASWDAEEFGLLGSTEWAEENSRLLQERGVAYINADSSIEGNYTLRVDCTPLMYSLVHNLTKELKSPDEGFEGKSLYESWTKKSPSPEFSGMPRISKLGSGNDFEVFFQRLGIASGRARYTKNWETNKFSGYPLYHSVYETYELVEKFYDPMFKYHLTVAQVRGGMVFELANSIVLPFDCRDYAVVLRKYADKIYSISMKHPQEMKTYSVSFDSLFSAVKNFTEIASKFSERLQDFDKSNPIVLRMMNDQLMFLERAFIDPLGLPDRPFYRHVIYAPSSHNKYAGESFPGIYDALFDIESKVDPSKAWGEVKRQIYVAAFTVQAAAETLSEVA

SMILES | targeting properties (22RV1 (PSMA+) [1]) | enrichment in the prostate cancer tumor site (22RV1 (PSMA+) [1]) | binding affinity to PSMA receptor (PSMA receptor) | clearance in rats in vivo, in words [2] | toxic reactions in acute toxicity experiment [3] | discrimination capability (tumor vs normal prostate) compared with OTL78 (22RV1 (PSMA+) [4]) | TBR (tumor-to-background ratio), in words (22RV1 (PSMA+) [5]) | fluorescence value at the tumor site compared with OTL78 (22RV1 (PSMA+) [5]) | TBR compared with OTL78 (22RV1 (PSMA+) [5]) | also measured
CC1(C)C(=CC=C2CCCC(C=CC3=[N+](CCCCS(=O)(=O)[O-])c4ccc(S(=O)(=O)[O-])cc4C3(C)C)=C2Oc2ccc(CC(NC(=O)CCOCCOCCNC(=O)CCC(NC(=O)NC(CCC(=O)[O-])C(=O)[O-])C(=O)[O-])C(=O)[O-])cc2)N(CCCCS(=O)(=O)[O-])c2ccc(S(=O)(=O)[O-])cc21.[K+].[K+].[K+].[K+].[K+].[K+].[K+] (centres unmarked) [Example 12] | good targeting properties | enriched in the prostate cancer tumor site | good affinity | cleared more rapidly | no toxic reactions were observed | approximately 5 fold | good TBR | greater fluorescence values at the tumor site than OTL78 | higher TBR | 
CC1(C)C(=CC=C2CCCC(C=CC3=[N+](CCCCS(=O)(=O)[O-])c4ccc(S(=O)(=O)[O-])cc4C3(C)C)=C2Oc2ccc(CC(NC(=O)CCOCCOCCNC(=O)CCC(NC(=O)NC(CCC(=O)[O-])C(=O)[O-])C(=O)[O-])C(=O)[O-])cc2)N(CCCCS(=O)(=O)[O-])c2ccc(S(=O)(=O)[O-])cc21.[Li+].[Li+].[Li+].[Li+].[Li+].[Li+].[Li+] (centres unmarked) [Example 13] | good targeting properties | enriched in the prostate cancer tumor site | good affinity | cleared more rapidly | no toxic reactions were observed | approximately 5 fold | good TBR | greater fluorescence values at the tumor site than OTL78 | higher TBR | 
CC1(C)C(=CC=C2CCCC(C=CC3=[N+](CCCCS(=O)(=O)[O-])c4ccc(S(=O)(=O)[O-])cc4C3(C)C)=C2Oc2ccc(CC(NC(=O)CCOCCCOCCCNC(=O)CCC(NC(=O)NC(CCC(=O)[O-])C(=O)[O-])C(=O)[O-])C(=O)[O-])cc2)N(CCCCS(=O)(=O)[O-])c2ccc(S(=O)(=O)[O-])cc21.[Na+].[Na+].[Na+].[Na+].[Na+].[Na+].[Na+] (centres unmarked) [Example 31] | good targeting properties | enriched in the prostate cancer tumor site | good affinity | cleared more rapidly | no toxic reactions were observed | approximately 5 fold | good TBR | greater fluorescence values at the tumor site than OTL78 | higher TBR | 
CC1(C)C(=CC=C2CCCC(C=CC3=[N+](CCCCS(=O)(=O)[O-])c4ccc(S(=O)(=O)[O-])cc4C3(C)C)=C2Oc2ccc(CC(NC(=O)CCOCCCOCCCOCCOCCOCCNC(=O)CCC(NC(=O)NC(CCC(=O)[O-])C(=O)[O-])C(=O)[O-])C(=O)[O-])cc2)N(CCCCS(=O)(=O)[O-])c2ccc(S(=O)(=O)[O-])cc21.[Na+].[Na+].[Na+].[Na+].[Na+].[Na+].[Na+] (centres unmarked) [Example 41] | good targeting properties | enriched in the prostate cancer tumor site | good affinity | cleared more rapidly | no toxic reactions were observed | approximately 5 fold | good TBR | greater fluorescence values at the tumor site than OTL78 | higher TBR | 
CC1(C)C(/C=C/C2=C(Oc3ccc(C[C@H](NC(=O)[C@H](Cc4ccccc4)NC(=O)CCOCCOCCNC(=O)CC[C@H](NC(=O)N[C@@H](CCC(=O)O)C(=O)O)C(=O)O)C(=O)O)cc3)C(=C/C=C3/N(CCCCS(=O)(=O)O)c4ccc(S(=O)(=O)O)cc4C3(C)C)/CCC2)=[N+](CCCCS(=O)(=O)[O-])c2ccc(S(=O)(=O)O)cc21 [OTL78, reference compound] |  |  |  |  |  |  |  |  |  | average AUC0-t ([2]; rats, 2 mg/kg, plasma): 9429 ng·h/mL; average clearance ([2]; rats, 2 mg/kg, plasma): 3.50 mL/min/kg; Prostate fluorescence (22RV1 (PSMA+) [4]; group mean): 3.27E+09 photon/second; Tumor fluorescence (22RV1 (PSMA+) [4]; group mean): 7.26E+09 photon/second; Prostate fluorescence (22RV1 (PSMA+) [4]; individual animal): 4.77E+08 photon/second and 8.11E+09 photon/second and 1.23E+09 photon/second; Tumor fluorescence (22RV1 (PSMA+) [4]; individual animal): 7.07E+09 photon/second and 1.01E+10 photon/second and 4.61E+09 photon/second; T/P Ratio (22RV1 (PSMA+) [4]; group mean): 6.61; T/P Ratio (22RV1 (PSMA+) [4]; individual animal): 14.8 and 1.25 and 3.75; TBR (mean) (22RV1 (PSMA+) [5]; 1 h): 1.30; TBR (mean) (22RV1 (PSMA+) [5]; 2 h): 1.35; TBR (mean) (22RV1 (PSMA+) [5]; 4 h): 1.38; TBR (mean) (22RV1 (PSMA+) [5]; 8 h): 1.36; TBR (mean) (22RV1 (PSMA+) [5]; 24 h): 1.55; TBR (mean) (22RV1 (PSMA+) [5]; 72 h): 1.65; fluorescence value at the tumor site (22RV1 (PSMA+) [5]; 1 h): 8.75E+09; fluorescence value at the tumor site (22RV1 (PSMA+) [5]; 2 h): 6.58E+09; fluorescence value at the tumor site (22RV1 (PSMA+) [5]; 4 h): 3.27E+09; fluorescence value at the tumor site (22RV1 (PSMA+) [5]; 8 h): 1.71E+09; fluorescence value at the tumor site (22RV1 (PSMA+) [5]; 24 h): 1.41E+09; fluorescence value at the tumor site (22RV1 (PSMA+) [5]; 72 h): 9.69E+08

Reference: patent publication US12715844B2, “Compound, preparation method therefor, composition, kit and use thereof” (SIGNDO BIOTECHNOLOGY (SUZHOU) CO., LTD, priority 2023, dated 2026)
